Measurements taken from article PMC12828148, “Engineered cyclic peptide targeting ITGA5 disrupts tumor–stroma interaction to overcome desmoplasia and resistance in pancreatic ductal adenocarcinoma” (Acta Pharmaceutica Sinica. B, 2025).
Peptide text beside a SMILES is read from it.

What was measured:
[1] = molecular target: T1, human integrin α5β1 (Homo sapiens, UniProt P05556+P08648); experiment: ITGA5 competition study (α5β1 binding to FN-coated plate, ELISA); conditions: human recombinant α5β1 on FN-coated plate, increasing peptide concentrations
T1 construct: purchased RnD (printed for the alanine-replacement peptide array, not for the ELISA itself)
Experimental: To examine the affinity of the peptide to the target ITGA5, a 96 well MaxiSorp™ (Thermo Scientific) was coated with 100 μL FN (Advanced Biomatrix) at 1 μg/mL by overnight incubation at 4 °C. Next, the plate was washed with DPBS (Lonza) and blocked with 5% bovine serum albumin (BSA) in DPBS for at least 1 h at RT. In the meantime, mentioned concentrations of the peptides were mixed with 2 μg/mL human integrin α5β1 in DPBS with Mg^2+ and Ca^2+. The mixture was then set to rest for 30 min at RT. After blocking with 5% BSA, the plate was washed with DPBS. The mixture of integrin α5β1 and peptide was transferred to a well plate and incubated for 1 h at RT. Next, the plate was washed three times with PBS with 0.1% Tween 20 (PBS-T) and then mouse anti-human CD49e (RnD Systems) was added. After 1 h of incubation, plate was washed and the secondary peroxidase labeled antibody was added and incubated for 1 h at RT. After washing with PBS-T, the plate was quickly developed with 3,3′,5,5′-tetramethylbenzidine (TMB) (50 μL per well) and incubated for 5 min at RT in the dark. The reaction was stopped with 3 mol/L H2SO4 (50 μL per well) and the absorbance was measured at 450 nm with plate reader (Tecan).

[2] = test system: PANC-1 + PSC and MIA PaCa-2 + PSC co-injection xenograft tumors
Experimental: Six-week-old male CB17 SCID mice (Janvier Labs, Le Genest-Saint-Isle, France) were subcutaneously injected with a 2:1 mixture of 4 × 10^6 human PSCs and 2 × 10^6 PANC-1 or MIA PaCa-2 cells. Tumor growth was assessed twice a week. Tumor-bearing mice (±100 mm^3) were treated with phosphate buffered saline (PBS), cyAV3.3, gemcitabine, or combination of gemcitabine and cyAV3.3 intraperitoneally (i.p). Animals were euthanized, tumors and other organs were harvested and embedded in Cryomatrix (Thermo Scientific) before being snap frozen in cold 2-methyl butane (Thermo Scientific) and stored at −80 °C until analyses. […]
Immunohistochemical staining of mouse tumors
Tumors were cut into 7 μm thick sections and mounted on glass slides using Cryotome FSE (Thermo Scientific), dried, and fixed in acetone for 15 min. Tumor sections were rehydrated in PBS for 10 min then incubated with primary antibody diluted in PBS for 1 hour at RT. Antibodies […]
Next, slides were washed 3 times with PBS before incubation with secondary fluorescence-labeled antibody diluted in PBS. After 30 min of incubation, slides were washed with PBS and shielded with a DAPI -containing mounting medium. Images were made using a Hamamatsu NanoZoomer Digital slide scanner 2.0HT (Hamamatsu Photonics, New Jersey, […]

[3] = test system: hPSC activated with TGF-β; experiment: Inhibition of TGF-β-induced PSC activation (immunocytochemical staining, Western blot); assay type: cell-based, human; conditions: 5 ng/mL TGF-β, 48 h, peptides at 20 and 50 μmol/L
Experimental: secondary peroxidase labeled antibody was added and incubated for 1 h at RT. The HRP signal was developed using standard chemiluminescence kit and the signal was measured.
(§1) To evaluate the stability, 20 µmol/L peptide was incubated in 50% human plasma at biological temperature 37 °C for 1, 2, and 24 h. After incubation, plasma was precipitated by adding equal volume of 4% trichloroacetic acid (TCA) and rested on ice for 10 min. As control (or 0h), precipitation was performed immediately after mixing the peptide and plasma. Supernatant was collected after centrifugation at 13,300 × g and assessed using reversed phase high performance liquid chromatography (HPLC) with 5%, 95%, and 99.9% acetonitrile in de-gassed water with 0.1% trifluoroacetic acid as eluents. The remaining peptide was analyzed at a wavelength 280 nm.
Quantitative real-time PCR
To examine the effect of peptides on the gene expression of hPSC activation markers, cells were seeded into a 12 well plate at a seeding density of 50,000 cells/well. After overnight incubation, cells were starved for 24 h, then treated with human recombinant 5 ng/mL TGF-β (Peprotech, Hamburg, Germany) and […] peptide. After 24 h of the incubation, cells were lysed and total RNA was isolated using GenElute™ Mammalian Total RNA Miniprep Kit (Sigma–Aldrich) and the RNA concentration was measured using a NanoDrop® ND-1000 Spectrophotometer (Thermo Scientific, Waltham, USA). cDNA was synthesized with iScript™ cDNA Synthesis Kit (BioRad, Veenendaal, The Netherlands), and 10 ng cDNA was used for each PCR reaction. […] Quantitative real time PCR was performed with 2× SensiMix SYBR and Fluoroscein Kit (Bioline GmbH, Luckenwalde, Germany) using a BioRad CFX384 Real-Time PCR detection system (BioRad). […]
To evaluate the effect of peptides on the protein expression of hPSC activation markers, hPSCs were seeded into a 12 well plate at seeding density 50,000 cells/well. […] Proteins were detected with […]
medium. […] Images were analyzed using […]
secondary fluorescence-labeled antibody diluted in PBS. […]

[4] = Peptide stability in human plasma; assay type: in vitro ADME; conditions: 20 µmol/L peptide, 50% human plasma, 37 °C, 1, 2 and 24 h, TCA precipitation, RP-HPLC UV 280 nm
Experimental: as §1
Quantitative real-time PCR […]
The next day, the medium […]
was changed with 0% FBS Stellate Cell medium to starve hPSCs for 24 h. Subsequently, hPSCs were incubated with 5 ng/mL TGF-β1 and peptide for 48 h to examine the effect on protein expression of different markers such as α-SMA and collagen-1. Cells were lysed using 1× blue loading buffer containing 1× DTT reducing agent (Cell Signaling Technology) and homogenized using ultrasonication. Protein lysates were separated on a 4%–20% Tris-Glycine gel (Thermo Scientific) and then transferred onto a PVDF membrane (Thermo Scientific). […]

SMILES: C[C@@H]1NC(=O)[C@H](CCCNC(=N)N)NC(=O)[C@H](Cc2ccc(O)cc2)NC(=O)[C@H](Cc2ccc(O)cc2)NC(=O)[C@H](CCCNC(=N)N)NC(=O)CNC(=O)[C@H](CCCCN)NC(=O)[C@H](Cc2ccc(O)cc2)NC(=O)[C@H]([C@@H](C)O)NC1=O [cyAV3.3] (cyclo(ATYKGRYYR))
- blocking of FN-α5β1 interaction, cyclic versus linear [1]: blocked the interaction significantly stronger than AV3.3
- reduction of tumor size / tumor growth ([2]; PANC-1 + PSC and MIA PaCa-2 + PSC co-injection xenografts, i.p. treatment, n = 4 per group per tumor type): ~30%
- signs of toxicity (body mass, organ mass) ([2]; co-injection xenograft mice, i.p. treatment): did not show any obvious signs of toxicity
- tumor blood vessel (CD31+) lumen diameter ([2]; immunofluorescence, co-injection xenograft tumors): larger lumen diameter compared to the control tumors
- inhibition of downstream signaling p-FAK ([3]; Western blot): more inhibition
- inhibition of PSC activation by TGF-β1 (expression of α-SMA and collagen-1) ([3]; immunostaining and Western blot): much stronger than AV3.3
- stability of the peptides in human plasma [4]: significant improvement in the stability
